This passage reports IC50 cell viability and efficacy results from the supplement of paper PMC12137928.

The subject of assay [1] is HCT116. The following applies: 72 h. Summed up: (§1)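 HCT116 cells went into 1536-well plates at 250 per well. CellTiter-Glo luminescence was expressed relative to vehicle (0%) and positive control (-100%) and then pattern-corrected. Both IC50 and maximal efficacy were taken from four-parameter Hill fits.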
The test system of assay [2] is HCT116. Kind of assay: efficacy (maximum % inhibition of viability vs DMSO); higher = more cytotoxic. The following applies: 72 h. A digest of the protocol: as §1

Where a name gives a salt, the structure may show the parent alone.

`O=C(c1ccc(F)c(F)c1Nc1ccc(I)cc1F)N1CC(O)([C@@H]2CCCCN2)C1` [Cobimetinib]: the values for the IC50 cell viability with HCT116 [1] (ICRF193 0 nM) and with HCT116 [1] (ICRF193 200 nM) were 18.3 µM and 9.2 µM, respectively. For the same molecule, the efficacy in the assay on HCT116 [2] (ICRF193 0 nM) was determined as 55.7%; with HCT116 [2] (ICRF193 200 nM) it was 75.9%.

Take `Clc1cccc(Cl)c1NC1=NCCN1` [Clonidine]: the IC50 cell viability with HCT116 [1] (ICRF193 0 nM) was over 45.8 µM; in the assay with HCT116 [1] (ICRF193 200 nM) it was 4.11 µM. This molecule yielded an efficacy in the assay with HCT116 [2] (ICRF193 200 nM) of 68.5%.

`O=c1[nH]c2ccccc2n1C1CCN(CCCC(c2ccc(F)cc2)c2ccc(F)cc2)CC1` [Pimozide]: the IC50 cell viability in the assay on HCT116 [1] (ICRF193 0 nM) was determined as 18.3 µM; in the assay on HCT116 [1] (ICRF193 200 nM), 20.6 µM. In addition, the efficacy in the assay on HCT116 [2] (ICRF193 0 nM) was determined as 102%; in the assay with HCT116 [2] (ICRF193 200 nM), 109%.

Turning to `CNCCCC1c2ccccc2C=Cc2ccccc21` [Protriptyline hydrochloride], the IC50 cell viability in the assay with HCT116 [1] (ICRF193 0 nM) and in the assay with HCT116 [1] (ICRF193 200 nM) was 29.1 µM each time. In addition, the efficacy in the assay on HCT116 [2] (ICRF193 0 nM) was determined as 68.2%; in the assay with HCT116 [2] (ICRF193 200 nM), 95.4%.

As to `CCCCC(=O)OCC(=O)[C@]1(O)Cc2c(O)c3c(c(O)c2[C@@H](O[C@H]2C[C@H](NC(=O)C(F)(F)F)[C@H](O)[C@H](C)O2)C1)C(=O)c1c(OC)cccc1C3=O` [Valrubicin], the IC50 cell viability is 3.66 µM in the assay on HCT116 [1] (ICRF193 0 nM) and 2.31 µM with HCT116 [1] (ICRF193 200 nM). The efficacy in the assay on HCT116 [2] (ICRF193 0 nM) came to 90.1%; in the assay on HCT116 [2] (ICRF193 200 nM), 97.8%.

As for `CC(C)=CCOc1ccc(/C=C/C(=O)c2ccc(OCC=C(C)C)cc2OCC(=O)O)cc1` [Sofalcone], the values for the IC50 cell viability in the assay on HCT116 [1] (ICRF193 0 nM) and in the assay with HCT116 [1] (ICRF193 200 nM) were 29.1 µM and over 45.8 µM, respectively. Besides, in the assay with HCT116 [2] (ICRF193 0 nM), the efficacy stood at 108%.

Take `CC(C)c1nc(CN(C)C(=O)N[C@H](C(=O)N[C@@H](Cc2ccccc2)C[C@H](O)[C@H](Cc2ccccc2)NC(=O)OCc2cncs2)C(C)C)cs1` [Ritonavir]: the IC50 cell viability in the assay on HCT116 [1] (ICRF193 0 nM) is over 45.8 µM; with HCT116 [1] (ICRF193 200 nM) it was 20.6 µM. Besides, the efficacy with HCT116 [2] (ICRF193 200 nM) came out at 57.4%.

As for `O=C(Nc1ccc([N+](=O)[O-])cc1Cl)c1cc(Cl)ccc1O` [Niclosamide], the IC50 cell viability with HCT116 [1] (ICRF193 0 nM) and in the assay on HCT116 [1] (ICRF193 200 nM) was 0.712 µM in each case. The efficacy worked out at 88.5% in the assay on HCT116 [2] (ICRF193 0 nM) and 82.8% with HCT116 [2] (ICRF193 200 nM).

On to `O=C1c2c(O)ccc(O)c2C(=O)c2c(NCCNCCO)ccc(NCCNCCO)c21` [Mitoxantrone], for which the IC50 cell viability was 2.31 µM with HCT116 [1] (ICRF193 0 nM) and 2.06 µM in the assay on HCT116 [1] (ICRF193 200 nM). Besides, the values for the efficacy with HCT116 [2] (ICRF193 0 nM) and with HCT116 [2] (ICRF193 200 nM) were 90.7% and 96.4%, respectively.

Consider `C[n+]1c2cc(N)ccc2cc2ccc(N)cc21.Nc1ccc2cc3ccc(N)cc3nc2c1` [Acriflavine hydrochloride], for which the IC50 cell viability in the assay on HCT116 [1] (ICRF193 0 nM) stood at 16.4 µM; with HCT116 [1] (ICRF193 200 nM) it was 23.1 µM. For the same molecule, the efficacy is 50.4% in the assay with HCT116 [2] (ICRF193 0 nM) and 56.5% with HCT116 [2] (ICRF193 200 nM).

Regarding `c1cnc2cc3c(cc2n1)[C@@H]1CNC[C@H]3C1` [Varenicline tartrate], the values for the IC50 cell viability with HCT116 [1] (ICRF193 0 nM) and in the assay on HCT116 [1] (ICRF193 200 nM) were over 45.8 µM and 29.1 µM, respectively. This molecule yielded an efficacy in the assay on HCT116 [2] (ICRF193 200 nM) of 80.4%.

On to `NCCNc1ccc(NCCN)c2c1C(=O)c1ccncc1C2=O` [Pixantronemaleate], for which the values for the IC50 cell viability with HCT116 [1] (ICRF193 0 nM) and with HCT116 [1] (ICRF193 200 nM) were 29.1 µM and 13 µM, respectively. Also, the efficacy stood at 83.2% with HCT116 [2] (ICRF193 0 nM) and 82.2% in the assay on HCT116 [2] (ICRF193 200 nM).

Regarding `C[C@]12Cc3nonc3C[C@@H]1CC[C@@H]1[C@@H]2CC[C@@]2(C)[C@H]1CC[C@]2(C)O` [Furazabol], the IC50 cell viability came to 18.3 µM in the assay on HCT116 [1] (ICRF193 0 nM) and 23.1 µM in the assay on HCT116 [1] (ICRF193 200 nM). In addition, the efficacy was found to be 46.7% in the assay on HCT116 [2] (ICRF193 0 nM) and 51.4% in the assay on HCT116 [2] (ICRF193 200 nM).

Turning to `COC(=O)C1=C(C)NC(C)=C(C(=O)OC(C)(C)CN(C)CCC(c2ccccc2)c2ccccc2)C1c1cccc([N+](=O)[O-])c1` (centres undefined) [Lercanidipine hydrochloride], the IC50 cell viability in the assay on HCT116 [1] (ICRF193 0 nM) was determined as 20.6 µM; with HCT116 [1] (ICRF193 200 nM), 16.4 µM. Besides, the efficacy in the assay on HCT116 [2] (ICRF193 0 nM) turned out to be 102%; with HCT116 [2] (ICRF193 200 nM), 89.3%.

Consider `CO[C@H]1C(=O)[C@]2(C)[C@@H](OC)C[C@H]3OC[C@@]3(OC(C)=O)[C@H]2[C@H](OC(=O)c2ccccc2)[C@]2(O)C[C@H](OC(=O)[C@H](O)[C@@H](NC(=O)OC(C)(C)C)c3ccccc3)C(C)=C1C2(C)C` [Cabazitaxel], for which the IC50 cell viability in the assay with HCT116 [1] (ICRF193 0 nM) is over 45.8 µM; in the assay with HCT116 [1] (ICRF193 200 nM), 0.0058 µM. Also, the efficacy in the assay on HCT116 [2] (ICRF193 200 nM) turned out to be 65.5%.

As for `C/C(=C\c1csc(C)n1)[C@@H]1C[C@@H]2O[C@]2(C)CCC[C@H](C)[C@H](O)[C@@H](C)C(=O)C(C)(C)[C@@H](O)CC(=O)N1` [Ixabepilone], the figures for the IC50 cell viability in the assay with HCT116 [1] (ICRF193 0 nM) and in the assay with HCT116 [1] (ICRF193 200 nM) were 0.92 µM and over 45.8 µM, respectively. In the assay on HCT116 [2] (ICRF193 0 nM), the efficacy worked out at 72.5%.

Regarding `N#C/C(=C1/SC[C@@H](c2ccc(Cl)cc2Cl)S1)n1ccnc1` [Luliconazole], the results for the IC50 cell viability with HCT116 [1] (ICRF193 0 nM) and in the assay with HCT116 [1] (ICRF193 200 nM) were over 45.8 µM and 20.6 µM, respectively. In addition, the efficacy with HCT116 [2] (ICRF193 200 nM) came out at 44.9%.

As for `COC(=O)C1=C(C)NC(C)=C(C(=O)OCCN(C)Cc2ccccc2)C1c1cccc([N+](=O)[O-])c1` (centres undefined) [Nicardipine], the IC50 cell viability was 23.1 µM in the assay with HCT116 [1] (ICRF193 0 nM) and 20.6 µM in the assay on HCT116 [1] (ICRF193 200 nM). The figures for the efficacy in the assay on HCT116 [2] (ICRF193 0 nM) and with HCT116 [2] (ICRF193 200 nM) were 61.1% and 69.1%, respectively.

As for `CCCCC[C@H](O)C=C[C@H]1[C@@H](O)CC(=O)[C@@H]1CCCCCCC(=O)O`, the figures for the IC50 cell viability in the assay with HCT116 [1] (ICRF193 0 nM) and with HCT116 [1] (ICRF193 200 nM) were 20.6 µM and 23.1 µM, respectively. The results for the efficacy with HCT116 [2] (ICRF193 0 nM) and in the assay on HCT116 [2] (ICRF193 200 nM) were 73.2% and 73.8%, respectively.
